Key:
[1] = biological target: T1, malonyl-CoA decarboxylase prepared from rat heart (Rattus norvegicus, UniProt Q920F5); assay: In vitro MCD inhibitory assay (spectrophotometric, 96 well); type: biochemical; settings: concentration causing 50% inhibition of MCD activity, read-out: IC50 of the MCD inhibitors
T1 construct: malonyl-CoA decarboxylase prepared from rat heart; from tissue; host or cells: rat heart
T1 sequence (Q920F5 39-492): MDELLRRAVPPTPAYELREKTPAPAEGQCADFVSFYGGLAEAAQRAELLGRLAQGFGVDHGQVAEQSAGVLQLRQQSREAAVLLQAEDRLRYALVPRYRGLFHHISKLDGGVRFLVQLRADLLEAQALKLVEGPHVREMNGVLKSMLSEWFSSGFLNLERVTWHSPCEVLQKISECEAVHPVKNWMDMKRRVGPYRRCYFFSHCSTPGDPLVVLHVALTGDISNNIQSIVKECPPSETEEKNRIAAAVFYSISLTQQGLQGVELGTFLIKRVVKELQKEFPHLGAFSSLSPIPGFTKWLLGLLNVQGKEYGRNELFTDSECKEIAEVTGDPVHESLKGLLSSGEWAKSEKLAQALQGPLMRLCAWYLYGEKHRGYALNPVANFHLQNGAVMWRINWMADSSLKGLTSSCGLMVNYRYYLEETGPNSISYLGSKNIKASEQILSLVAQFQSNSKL
Procedure: The following reagents are added into a 96 well titer plate: Tris-HCl buffer, 20 μL; DTE, 10 μL; I-malate, 20 μL; NAD, 10 μL; NADH, 25 μL; water, 80 μL; malic dehydrogenase, 5 μL. The contents are mixed and incubated for 2 min followed by the addition of 5 μL of citrate synthase.

[2] = system: human breast cancer cells; settings: breast carcinoma cells; Pizer et al.; cited from earlier work

IC50 [1] [nM] | SMILES | other results
604 | O=S(=O)(Nc1ccc(C(O)(C(F)(F)F)C(F)(F)F)cc1)N1CCCCC1 [Example 2-5] | –
10 | O=C(N1CCOCC1)N(CCCCc1nnn[nH]1)c1ccc(C(O)(C(F)(F)F)C(F)(F)F)cc1 [Example 4-114] | –
36 | O=C(N1CCOCC1)N(CCCF)c1ccc(C(O)(C(F)(F)F)C(F)(F)F)cc1 [Example 4-130] | –

Continued, compound first:

SMILES | IC50 [1] [nM] | other results
O=C(O)CCCCN(C(=O)c1ccncc1)c1ccc(C(O)(C(F)(F)F)C(F)(F)F)cc1 [Example 1-3] | 7 | –
O=C(NCc1ccccc1)Nc1ccc(C(O)(C(F)(F)F)C(F)(F)F)cc1 [Example 3, N-benzyl-N′-{4-[2,2,2-trifluoro-1-hydroxy-1-(trifluoromethyl)ethyl]phenyl}urea] | – | melting point: 163 to 164 °C (dec.)
CCN(CCC#N)C(=O)N(CCCCC(=O)O)c1ccc(C(O)(C(F)(F)F)C(F)(F)F)cc1 [Example 4-94] | 9 | –
N#Cc1cccc(CS(=O)(=O)c2nccn2-c2ccc(C(O)(C(F)(F)F)C(F)(F)F)cc2)c1 [Example 6-1] | 18 | –
OC(c1ccc(-n2nc(-c3ccccn3)cc2-c2ccccn2)cc1)(C(F)(F)F)C(F)(F)F [Example 8-4] | 557 | –
Cc1cc(-c2ccncc2)n(-c2ccc(C(O)(C(F)(F)F)C(F)(F)F)cc2)n1 [Example 8-28] | 223 | –
CCCCCCCCCCCCCCOc1ccc(C(=O)O)o1 [TOFA, 5-(tetradecyloxy)-2-furoic acid] | – | malonyl-CoA level, of the control [2]: 60%
